Patent publication US20130210061A1, “Method of Screening Damp-Dry Malodor Inhibitor and Method of Evaluating Damp-Dry Malodor Inhibitor” (KAO CORPORATION, priority 2010, published 2013)
Read-outs that look alike come from different tables or passages of the source.

Experiments:
Assay in all cases: Example 1: quantification of 4M3H on cotton fabric with 14-methylhexadecanoic acid
R. slooffiae 13c = format: cell-based, Rhodotorula slooffiae; conditions: 37° C., 24 hours, vs sterilized water
Experimental: (§1) 10 mL of methanol was added to the towel that had been left to stand still for 24 hours, and 1 mL of the methanol was mixed with 1 mL of ADAM (9-anthrydiazomethanene, manufactured by Funakoshi Corp., 0.1 w/v %). The mixture was left to stand for 60 minutes at room temperature, and thus derivatization was carried out.
(§2) Thereafter, 10 μL of the solution was analyzed by using LC-FL (liquid chromatography apparatus: HITACHI ELITE LaChrom (trade name, manufactured by Hitachi, Ltd.), column: Lichrosphere 100 RP-8(e) (trade name, manufactured by Agilent Technologies, Inc., 5 μm×125 mm×4 mmφ), column temperature: 40° C., eluent a mixed solution of acetonitrile/water=7/3 (volume ratio), flow rate: 1.0 mL/min, detector: excitation wavelength (365 nm), measurement wavelength (412 nm)), and thereby quantification of 4M3H thus produced was carried out. In regard to the amount of production of 4M3H, a sample which produced 4M3H in an amount of more than 1 μg was rated as “[…]”; a sample which produced 4M3H in an amount of more than 0.1 μg and 1 μg or less was rated as “∘”; a sample which produced 4M3H in an amount of more than 0 μg and 0.1 μg or less was rated as “Δ”; and a sample in which no 4M3H was detected was rated as “x”.
(§3) One platinum loop of each of Moraxella osloensis NCIMB10693, Moraxella sp. 4-1, Psychrobacter pacificensis NBRC103191, Psychrobacter glacincola NCIMB101053, Pseudomonas alcaligenes No. 41, Acinetobacter calcoaceticus HH2BD-49, Saccaromyces cerevisiae NBRC1661, Rhodotorula mucilaginosa NBRC0909 and Rhodotorula slooffiae 13c was inoculated into 5 mL of a SCD liquid medium (manufactured by Nihon Pharmaceutical Co., Ltd.), and the microbial cells were subjected to shaking culture (160 rpm) at 35° C. for 24 hours. The microbial cells obtained after culture were centrifuged (8000×g, 10 minutes), the supernatant was removed, and then the microbial cells were suspended in 5 mL of physiological saline. The suspension was centrifuged again (8000×g, 10 minutes), subsequently the supernatant was removed, and a microbial suspension was prepared by using physiological saline such that the OD600 would be 0.1.
(§4) Furthermore, 0.1 mL each of 10-ppm or 100-ppm aqueous solutions of the compounds shown in the following Table 6 was applied on the fabric described above. As a control, a fabric on which sterilized water was applied instead of the compounds described below was also prepared.
(§5) On a plain-woven cotton fabric prepared as described above, 0.1 mL each of the various microbial suspensions was inoculated, and the samples were left to stand still under humidified conditions at 37° C. for 24 hours and were subjected to an evaluation such as described below.
(§6) Quantification of 4M3H was carried out by the same method as that used in Test Example 3, and by taking as a reference the 4M3H production amount of a sample on which sterilized water was applied as a test substance, the 4M3H production amounts in the case of applying other test substances were evaluated on the basis of the following criteria. • A: (4M3H production amount in the case of applying a test substance)<( 1/100 of the 4M3H production amount in the case of applying sterilized water) • B: ( 1/100 of the 4M3H production amount in the case of applying sterilized water)≦(4M3H production amount in the case of applying a test substance)<( 1/10 of the 4M3H production amount in the case of applying sterilized water) • C: ( 1/10 of the 4M3H production amount in the case of applying sterilized water)≦(4M3H production amount in the case of applying a test substance)<(4M3H production amount in the case of applying sterilized water) • D: (4M3H production amount in the case of applying sterilized water)≦(4M3H production amount in the case of applying a test substance)

[1] = test system: P. pacificensis NBRC103191; format: cell-based, Psychrobacter pacificensis; conditions: 37° C., 24 hours, vs sterilized water
Experimental: as §1, §2, §3, §4, §5, §6

P. alcaligenes No. 41 = format: cell-based, Pseudomonas alcaligenes; conditions: 37° C., 24 hours, vs sterilized water
Experimental: as §1, §2, §3, §4, §5, §6

S. cerevisiae NBRC1661 = format: cell-based, Saccaromyces cerevisiae; conditions: 37° C., 24 hours, vs sterilized water
Experimental: as §1, §2, §3, §4, §5, §6

Moraxella sp. 4-1 = format: cell-based; conditions: 37° C., 24 hours, vs sterilized water
Experimental: as §1, §2, §3, §4, §5, §6

[2] = test system: A. calcoaceticus HH2BD-49; format: cell-based, Acinetobacter calcoaceticus; conditions: 37° C., 24 hours, vs sterilized water
Experimental: as §1, §2, §3, §4, §5, §6

R. muculaginosa NBRC0909 = format: cell-based, Rhodotorula mucilaginosa; conditions: 37° C., 24 hours, vs sterilized water
Experimental: as §1, §2, §3, §4, §5, §6

P. glacincola NBRC101053 = format: cell-based, Psychrobacter glacincola; conditions: 37° C., 24 hours, vs sterilized water
Experimental: as §1, §2, §3, §4, §5, §6

M. osloensis NCIMB10693 = format: cell-based, Moraxella osloensis
Experimental: as §1, §2, §3, §4, §5, §6

[3] = 10 ppm test substance, M. osloensis NCIMB10693, cotton fabric with 14-methylhexadecanoic acid, 37° C., 24 hours, vs sterilized water
[4] = 100 ppm test substance, M. osloensis NCIMB10693, cotton fabric with 14-methylhexadecanoic acid, 37° C., 24 hours, vs sterilized water
[5] = Faucicola osloensis, NCIMB10693, 24 h, read-out: Production amount of 4M3H
[6] = Faucicola osloensis, 100 ppm test substance, M. osloensis NCIMB10693, cotton fabric with 14-methylhexadecanoic acid, 37° C., 24 hours, vs sterilized water, read-out: Production amount of 4M3H

For CN(C)c1ccc(/C([S-])=C(/[S-])c2ccccc2)cc1.CN(C)c1ccc(/C([S-])=C(/[S-])c2ccccc2)cc1.[Ni] [Bis(4-dimethylaminodithiobenzil)nickel], the “Production amount of 4M3H” value (R. slooffiae 13c; 10 ppm test substance) was “C (( 1/10 of the 4M3H production amount in the case of applying sterilized water)≦(4M3H production amount in the case of applying a test substance)<(4M3H production amount in the case of applying sterilized water))”, the “Production amount of 4M3H” value (R. slooffiae 13c; 100 ppm test substance) was “A ((4M3H production amount in the case of applying a test substance)<( 1/100 of the 4M3H production amount in the case of applying sterilized water))” and the “Production amount of 4M3H” value ([1]; 10 ppm test substance) was “C (( 1/10 of the 4M3H production amount in the case of applying sterilized water)≦(4M3H production amount in the case of applying a test substance)<(4M3H production amount in the case of applying sterilized water))”. The “Production amount of 4M3H” value ([1]; 100 ppm test substance) was “B (( 1/100 of the 4M3H production amount in the case of applying sterilized water)≦(4M3H production amount in the case of applying a test substance)<( 1/10 of the 4M3H production amount in the case of applying sterilized water))”, the “Production amount of 4M3H” value (P. alcaligenes No. 41; 10 ppm test substance) was “C (( 1/10 of the 4M3H production amount in the case of applying sterilized water)≦(4M3H production amount in the case of applying a test substance)<(4M3H production amount in the case of applying sterilized water))” and the “Production amount of 4M3H” value (P. alcaligenes No. 41; 100 ppm test substance) was “A ((4M3H production amount in the case of applying a test substance)<( 1/100 of the 4M3H production amount in the case of applying sterilized water))”. For the same compound, the “Production amount of 4M3H” value (S. cerevisiae NBRC1661; 10 ppm test substance) was “C (( 1/10 of the 4M3H production amount in the case of applying sterilized water)≦(4M3H production amount in the case of applying a test substance)<(4M3H production amount in the case of applying sterilized water))”, the “Production amount of 4M3H” value (S. cerevisiae NBRC1661; 100 ppm test substance) was “A ((4M3H production amount in the case of applying a test substance)<( 1/100 of the 4M3H production amount in the case of applying sterilized water))” and the “Production amount of 4M3H” value (Moraxella sp. 4-1; 10 ppm test substance) was “B (( 1/100 of the 4M3H production amount in the case of applying sterilized water)≦(4M3H production amount in the case of applying a test substance)<( 1/10 of the 4M3H production amount in the case of applying sterilized water))”. The “Production amount of 4M3H” value (Moraxella sp. 4-1; 100 ppm test substance) was “A ((4M3H production amount in the case of applying a test substance)<( 1/100 of the 4M3H production amount in the case of applying sterilized water))”, the “Production amount of 4M3H” value ([2]; 10 ppm test substance) was “B (( 1/100 of the 4M3H production amount in the case of applying sterilized water)≦(4M3H production amount in the case of applying a test substance)<( 1/10 of the 4M3H production amount in the case of applying sterilized water))” and the “Production amount of 4M3H” value ([2]; 100 ppm test substance) was “A ((4M3H production amount in the case of applying a test substance)<( 1/100 of the 4M3H production amount in the case of applying sterilized water))”. For the same compound, the “Production amount of 4M3H” value (R. muculaginosa NBRC0909; 10 ppm test substance) was “B (( 1/100 of the 4M3H production amount in the case of applying sterilized water)≦(4M3H production amount in the case of applying a test substance)<( 1/10 of the 4M3H production amount in the case of applying sterilized water))”, the “Production amount of 4M3H” value (R. muculaginosa NBRC0909; 100 ppm test substance) was “A ((4M3H production amount in the case of applying a test substance)<( 1/100 of the 4M3H production amount in the case of applying sterilized water))” and the “Production amount of 4M3H” value (P. glacincola NBRC101053; 10 ppm test substance) was “A ((4M3H production amount in the case of applying a test substance)<( 1/100 of the 4M3H production amount in the case of applying sterilized water))”. For the same compound, the “Production amount of 4M3H” value (P. glacincola NBRC101053; 100 ppm test substance) was “A ((4M3H production amount in the case of applying a test substance)<( 1/100 of the 4M3H production amount in the case of applying sterilized water))”, the “Production amount of 4M3H” value (M. osloensis NCIMB10693; [3]) was “C (( 1/10 of the 4M3H production amount in the case of applying sterilized water)≦(4M3H production amount in the case of applying a test substance)<(4M3H production amount in the case of applying sterilized water))” and the “Production amount of 4M3H” value (M. osloensis NCIMB10693; [4]) was “A ((4M3H production amount in the case of applying a test substance)<( 1/100 of the 4M3H production amount in the case of applying sterilized water))”.
With O=C/C=C/c1ccccc1 [Cinnamic aldehyde] the activity at 10 ppm (M. osloensis NCIMB10693; [5]) was 10 to 100% and the activity at 100 ppm (M. osloensis NCIMB10693; [5]) was less than 1%.
CCCCCCCCCCCC[N+](C)(C)C [Dodecyl trimethyl ammonium chloride] gave an activity at 100 ppm (M. osloensis NCIMB10693; [5]) of 10 to 100%.
For CCCCCCCCCCCCCCCC[N+](C)(C)C [Hexadecyl trimethyl ammonium chloride], the activity at 100 ppm (M. osloensis NCIMB10693; [5]) was greater than 100%.
In the case of CCCCC/C=C\C/C=C\CCCCCCCC(=O)O [Linoleic acid], the activity at 100 ppm (M. osloensis NCIMB10693; [6]) is reported as 1 to 10%.
With CC/C=C\C/C=C\C/C=C\CCCCCCCC(=O)O [Linolenic acid] the activity at 100 ppm (M. osloensis NCIMB10693; [6]) was 1 to 10%.
With CCCCCCCCCCCCCCCC(=O)O [Palmitic acid] the activity at 100 ppm (M. osloensis NCIMB10693; [6]) was 10 to 100%.
Compound CCCCCCCCCCCCCCCCCC(=O)O [Stearic acid] has an activity at 100 ppm (M. osloensis NCIMB10693; [6]) of 10 to 100%.
CCCCCCCCCCCCCC[N+](C)(C)C [Tetradecyl trimethyl ammonium chloride] gave an activity at 100 ppm (M. osloensis NCIMB10693; [6]) of 10 to 100%.
In the case of Polylysine, the “Production amount of 4M3H” value (M. osloensis NCIMB10693; [3]) is reported as “D ((4M3H production amount in the case of applying sterilized water)≦(4M3H production amount in the case of applying a test substance))” and the “Production amount of 4M3H” value (M. osloensis NCIMB10693; [4]) is reported as “C (( 1/10 of the 4M3H production amount in the case of applying sterilized water)≦(4M3H production amount in the case of applying a test substance)<(4M3H production amount in the case of applying sterilized water))”.
For Polyoxyethylene (10) lauryl ether, the “Production amount of 4M3H” value (M. osloensis NCIMB10693; [4]) was “D ((4M3H production amount in the case of applying sterilized water)≦(4M3H production amount in the case of applying a test substance))”.
In the case of “Sodium alkylbenzene sulfonate [Sodium akylbenzene sulfonate]”, the “Production amount of 4M3H” value (M. osloensis NCIMB10693; [4]) is reported as “C (( 1/10 of the 4M3H production amount in the case of applying sterilized water)≦(4M3H production amount in the case of applying a test substance)<(4M3H production amount in the case of applying sterilized water))”.
